In the supplement of paper PMC10307832:

Assays:
Assay in all cases: relative viability (nuclei count vs DMSO), 5 days (fraction); higher = more cells survive
17-AAG = compound: C=CCNC1=C2C[C@@H](C)C[C@H](OC)[C@H](O)[C@@H](C)/C=C(\C)[C@H](OC(N)=O)[C@@H](OC)/C=C\C=C(/C)C(=O)NC(=CC1=O)C2=O [17-AAG]
Procedure, shortened: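 In 1536-well plates, lung cancer cell lines rested overnight at 37 °C before five library-drug doses (not always all listed), √10 apart, were pinned onto vehicle-anchored plates. Nuclei were counted with MetaXpress from 4× Hoechst images taken after 5 days without medium change. Viability compares treated-well with vehicle-well nuclei as a median over plates, and plates needed control CV below 25% plus at least one doubling to pass.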

17-AAG + Trametinib = compound: C=CCNC1=C2C[C@@H](C)C[C@H](OC)[C@H](O)[C@@H](C)/C=C(\C)[C@H](OC(N)=O)[C@@H](OC)/C=C\C=C(/C)C(=O)NC(=CC1=O)C2=O [17-AAG] + CC(=O)Nc1cccc(-n2c(=O)n(C3CC3)c(=O)c3c(Nc4ccc(I)cc4F)n(C)c(=O)c(C)c32)c1 [Trametinib] (partner 0.02 µM)
Procedure, shortened: (§1)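 Nuclei were stained with Hoechst during a one-step fixation (final 0.05% Triton X-100, 1% formaldehyde, 1 ug/ml Hoechst) carried out 5 days after dosing, then counted on 4× images. The cells, lung cancer lines in 1536-well plates, had been dosed by pin tool the day after seeding with one drug alone or a fixed anchor-drug dose plus five library-drug doses (not always all listed) in √10 steps. Relative viability is the nuclei count in treated wells divided by that in vehicle wells, and each value is the median of duplicate plates.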

17-AAG + OSI-027 = compound: C=CCNC1=C2C[C@@H](C)C[C@H](OC)[C@H](O)[C@@H](C)/C=C(\C)[C@H](OC(N)=O)[C@@H](OC)/C=C\C=C(/C)C(=O)NC(=CC1=O)C2=O [17-AAG] + COc1cccc2cc(-c3nc([C@H]4CC[C@H](C(=O)O)CC4)n4ncnc(N)c34)[nH]c12 [OSI-027] (partner 0.5 µM)
Procedure, shortened: as §1

17-AAG + Phenformin = compound: C=CCNC1=C2C[C@@H](C)C[C@H](OC)[C@H](O)[C@@H](C)/C=C(\C)[C@H](OC(N)=O)[C@@H](OC)/C=C\C=C(/C)C(=O)NC(=CC1=O)C2=O [17-AAG] + N=C(N)NC(=N)NCCc1ccccc1 [Phenformin] (partner 250 µM)
Procedure, shortened: as §1

Cell Line | relative viability (17-AAG; 0.00128 µM) | relative viability (17-AAG; 0.004048 µM) | relative viability (17-AAG; 0.0128 µM) | relative viability (17-AAG; 0.128 µM) | relative viability (17-AAG + Trametinib; first compound 0.00128 µM) | relative viability (17-AAG + Trametinib; first compound 0.004048 µM) | relative viability (17-AAG + Trametinib; first compound 0.0128 µM) | relative viability (17-AAG + Trametinib; first compound 0.04048 µM) | relative viability (17-AAG + Trametinib; first compound 0.128 µM) | relative viability (17-AAG + OSI-027; first compound 0.00128 µM) | relative viability (17-AAG + OSI-027; first compound 0.004048 µM) | relative viability (17-AAG + OSI-027; first compound 0.0128 µM) | relative viability (17-AAG + OSI-027; first compound 0.128 µM) | relative viability (17-AAG + Phenformin; first compound 0.00128 µM) | relative viability (17-AAG + Phenformin; first compound 0.004048 µM) | relative viability (17-AAG + Phenformin; first compound 0.0128 µM) | relative viability (17-AAG + Phenformin; first compound 0.128 µM) | relative viability (17-AAG; 0.04048 µM) | relative viability (17-AAG + OSI-027; first compound 0.04048 µM) | relative viability (17-AAG + Phenformin; first compound 0.04048 µM)
PC-3 [JPC-3] | 1.01 | 1.06 | 1.01 | 0.873 | 0.681 | 0.711 | 0.68 | 0.472 | 0.551 | 0.729 | 0.787 | 0.851 | 0.653 | 0.481 | 0.472 | 0.485 | 0.468 | – | – | –
PC-14 | 0.967 | 0.742 | 0.398 | 0.0843 | 0.619 | 0.111 | 0.0838 | 0.101 | 0.0786 | 0.803 | 0.289 | 0.0511 | 0.0603 | 0.449 | 0.44 | 0.126 | 0.109 | 0.108 | 0.0734 | 0.123
RERF-LC-KJ | 1.03 | 1.05 | 0.669 | 0.26 | 0.837 | 0.864 | 0.737 | 0.404 | 0.244 | 0.62 | 0.637 | 0.231 | 0.22 | 0.535 | 0.489 | 0.321 | 0.27 | 0.284 | 0.268 | 0.268
SK-LU-1 | 1.06 | 0.796 | 0.315 | 0.181 | 0.436 | 0.473 | 0.217 | 0.195 | 0.216 | 0.342 | 0.17 | 0.102 | 0.0783 | 0.484 | 0.214 | 0.119 | 0.0908 | 0.229 | 0.0747 | 0.116
SK-MES-1 | 0.966 | 0.86 | 0.45 | 0.159 | 0.562 | 0.401 | 0.221 | 0.179 | 0.168 | 0.597 | 0.426 | 0.127 | 0.134 | 0.697 | 0.561 | 0.389 | 0.194 | 0.181 | 0.136 | 0.202
SW 900 | 0.831 | 0.727 | 0.312 | 0.141 | 0.587 | 0.513 | 0.208 | 0.128 | 0.153 | 0.476 | 0.487 | 0.134 | 0.0977 | 0.577 | 0.37 | 0.13 | 0.0981 | 0.155 | 0.0879 | 0.0856
SW 1573 | 0.973 | 0.95 | 0.542 | 0.104 | 0.589 | 0.381 | 0.161 | 0.117 | 0.0829 | 0.639 | 0.444 | 0.163 | 0.091 | 0.34 | 0.257 | 0.123 | 0.1 | 0.151 | 0.108 | 0.145
UMC-11 | 0.943 | 1.01 | 0.839 | 0.195 | 0.672 | 0.773 | 0.629 | 0.234 | 0.145 | 0.469 | 0.512 | 0.255 | 0.202 | 0.297 | 0.292 | 0.249 | 0.19 | 0.478 | 0.233 | 0.223
